What was measured:
Assay in all cases: relative viability (nuclei count vs DMSO), 5 days (fraction); higher = more cells survive
GW-2580 = compound: COC1=CC=C(C=C1)COC2=C(C=C(C=C2)CC3=CN=C(N=C3N)N)OC [GW-2580]
Outline: (§1)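 Nuclei counted with MetaXpress define viability as the ratio of treated to vehicle wells, given as a median across plates. The lung cancer cell lines were in 1536-well plates, pinned with five √10-spaced library-drug doses and imaged at 4× after 5 days and Hoechst staining. Plates passed with control CV below 25% and at least one doubling.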

Fedratinib = compound: Cc1cnc(Nc2ccc(OCCN3CCCC3)cc2)nc1Nc1cccc(S(=O)(=O)NC(C)(C)C)c1 [Fedratinib]
Outline: as §1

Fedratinib + Pemetrexed = compound: Cc1cnc(Nc2ccc(OCCN3CCCC3)cc2)nc1Nc1cccc(S(=O)(=O)NC(C)(C)C)c1 [Fedratinib] + Nc1nc2[nH]cc(CCc3ccc(C(=O)N[C@@H](CCC(=O)O)C(=O)O)cc3)c2c(=O)[nH]1 [Pemetrexed] (partner 0.2 µM)
Outline: (§2)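 Lung cancer cell lines, seeded in 1536-well plates, were treated the following day by pin tool with a single drug or with five library-drug doses (not always all listed) in √10 steps on top of a fixed anchor-drug dose. Cells were fixed and nuclei stained in one step after 5 days, and nuclei were counted. Relative viability is the nuclei count for treated wells divided by that for vehicle wells, reported as medians of duplicate plates.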

Fedratinib + Dasatinib = compound: Cc1cnc(Nc2ccc(OCCN3CCCC3)cc2)nc1Nc1cccc(S(=O)(=O)NC(C)(C)C)c1 [Fedratinib] + Cc1nc(Nc2ncc(C(=O)Nc3c(C)cccc3Cl)s2)cc(N2CCN(CCO)CC2)n1 [Dasatinib] (partner 0.075 µM)
Outline: as §2

GW-2580 + Alpelisib = compound: COC1=CC=C(C=C1)COC2=C(C=C(C=C2)CC3=CN=C(N=C3N)N)OC [GW-2580] + Cc1nc(NC(=O)N2CCC[C@H]2C(N)=O)sc1-c1ccnc(C(C)(C)C(F)(F)F)c1 [Alpelisib] (partner 2 µM)
Outline: as §2

Cell Line | relative viability (GW-2580; 0.08 µM) | relative viability (GW-2580; 0.8 µM) | relative viability (GW-2580; 2.53 µM) | relative viability (GW-2580; 8 µM) | relative viability (Fedratinib; 0.1 µM) | relative viability (Fedratinib; 0.3162 µM) | relative viability (Fedratinib; 1 µM) | relative viability (Fedratinib + Pemetrexed; first compound 0.1 µM) | relative viability (Fedratinib + Pemetrexed; first compound 0.3162 µM) | relative viability (Fedratinib + Pemetrexed; first compound 1 µM) | relative viability (Fedratinib + Dasatinib; first compound 0.1 µM) | relative viability (Fedratinib + Dasatinib; first compound 0.3162 µM) | relative viability (Fedratinib + Dasatinib; first compound 1 µM) | relative viability (GW-2580 + Alpelisib; first compound 0.08 µM) | relative viability (GW-2580 + Alpelisib; first compound 0.8 µM) | relative viability (GW-2580 + Alpelisib; first compound 2.53 µM) | relative viability (GW-2580 + Alpelisib; first compound 8 µM)
201T | 0.974 | 1.13 | 1.06 | 0.959 | 0.963 | 1 | 0.918 | 0.332 | 0.336 | 0.314 | 0.515 | 0.571 | 0.545 | 1.02 | 1.1 | 1.01 | 1.01
A549 | 1.01 | 1.12 | 0.944 | 0.932 | 0.998 | 0.937 | 0.958 | – | – | – | – | – | – | 0.723 | 0.688 | 0.721 | 0.764
A-427 | 1.05 | 1.11 | 0.86 | 0.881 | 0.928 | 1.02 | 0.555 | 0.97 | 0.848 | 0.939 | 0.74 | 0.733 | 0.249 | 1.08 | 1.12 | 1.02 | 1.09
ABC-1 | 0.956 | 1.14 | 0.869 | 0.883 | 0.827 | 0.954 | 0.816 | – | – | – | 0.499 | 0.629 | 0.569 | 1.36 | 0.944 | 0.93 | 0.891
BEN | 0.949 | 1.08 | 0.776 | 0.905 | 0.842 | 0.91 | 0.831 | 0.653 | 0.755 | 0.669 | 0.36 | 0.312 | 0.294 | 0.996 | 1.07 | 1.04 | 1.03
CAL-12T | 0.995 | 1.03 | 0.933 | 1.01 | 0.93 | 0.996 | 0.859 | 1.02 | 1.2 | 1.31 | 0.47 | 0.277 | 0.285 | 1.45 | – | 1.19 | 1.06
COR-L23 | 1.15 | 1.12 | 1.03 | 0.932 | 0.958 | 1.04 | 1.03 | 0.177 | 0.218 | 0.184 | 0.487 | 0.484 | 0.512 | 0.856 | 0.83 | 0.611 | 0.815
COR-L 105 | 1.01 | 1.05 | 0.932 | 0.908 | 0.827 | 1.1 | 0.664 | 0.96 | 1.1 | 0.827 | 0.29 | 0.319 | 0.287 | 0.91 | 1.28 | 0.946 | 0.902
Calu-6 | 1.12 | 1.1 | 0.96 | 1.04 | 1.03 | 1.04 | 0.971 | – | – | – | – | – | – | 1.08 | 0.964 | 0.902 | 1.07
ChaGo-K-1 | 0.938 | 0.985 | 1.01 | 0.999 | 0.953 | 0.948 | 0.958 | 0.273 | 0.254 | 0.253 | 0.515 | 0.437 | 0.496 | – | – | – | –
EBC-1 | 1.07 | 1.17 | 0.889 | 0.949 | 0.893 | 0.988 | 0.878 | – | – | – | – | – | – | 0.91 | 1 | 0.746 | 0.887
HCC-44 | 0.981 | 1.03 | 0.896 | 1.01 | 0.963 | 0.982 | 0.882 | 0.646 | 0.638 | 0.68 | – | – | – | 0.863 | 0.759 | 0.691 | 0.775
IA-LM | 0.849 | 1.1 | 0.913 | 0.936 | 1.01 | 0.87 | 0.931 | – | – | – | – | – | – | 1.11 | 0.725 | 0.656 | 0.883
NCI-H522 | 0.969 | 0.9 | 0.957 | 0.996 | 0.971 | 1.16 | 0.758 | 0.767 | 0.951 | 0.902 | 0.88 | 1.05 | 0.599 | – | – | – | –
NCI-H727 | 1.14 | 1.03 | 0.971 | 0.823 | 1.03 | 0.928 | 0.813 | – | – | – | 0.296 | 0.299 | 0.392 | 0.664 | 0.594 | 0.615 | 0.453
NCI-H1299 | 1.08 | 1.03 | 1 | 0.937 | 1.01 | 1.03 | 1 | – | – | – | – | – | – | 1.2 | 1.04 | 1.04 | 1.07
NCI-H1648 | 0.82 | – | 0.929 | 0.888 | 0.889 | 0.901 | 0.694 | 0.598 | 0.675 | 0.328 | – | – | – | – | – | – | –
NCI-H1650 | 1.08 | 1.11 | 0.83 | 1.05 | 0.715 | 1.01 | 0.748 | 0.292 | 0.312 | 0.37 | – | 0.295 | 0.231 | – | – | – | –
NCI-H1703 | 0.855 | 0.991 | 1.02 | 0.919 | 0.518 | 0.794 | 0.686 | – | – | – | – | – | – | 0.308 | 0.334 | 0.323 | 0.331
NCI-H2342 | 0.921 | 1.05 | 0.775 | 0.97 | 1.08 | 1.06 | 0.994 | 0.801 | 0.765 | 0.775 | 0.314 | 0.309 | 0.273 | – | – | – | –
SW 900 | 0.767 | 0.876 | 0.833 | 0.771 | 0.78 | 0.847 | 0.768 | 0.466 | 0.525 | 0.444 | 0.498 | 0.51 | 0.643 | – | – | – | –

Source: the supplement of paper PMC10307832
